From US20080119530A1, “Method for treatment and prevention of ultraviolet light induced skin pathologies” (priority 2006, published 2008)

Legend:
Akt = Akt activity by phosphorylation on immunoblot in keratinocytes; type: cell-based, mouse; settings: sham-irradiated keratinocytes and 30 minutes post-UV
Experimental: Immunoblotting. Flash frozen skin was ground with a mortar and pestle on dry ice, homogenized in lysis buffer containing 10 mM Tris (pH 7.4), 150 mM NaCl, 10% glycerol, 1% Triton X-100, 1 mM EDTA, Complete Protease Inhibitor Cocktail (Roche, Germany), 1 mM Na3V O4, 1.5 μM EGTA, and 10 μM NaF. Protein was quantified using the Coomassie Brilliant Blue G-250 protein assay (Bio-Rad, Hercules, Calif.). The evenness of loading and transfer was determined by staining with Ponceau S and by actin immunoblotting. […]
Cell culture. […] Transfection efficiency was quantified by determining the proportion of the cells that incorporated the fluorescent Cy3-conjugated siRNA or GFP one day post-transfection. […]

Tg.AC mice = assay: UV-induced epidermal hyperplasia in mouse skin; type: in vivo
From the text: Animals. Homozygous v-rasHa transgenic mice on an FVB/N background were used in in vivo experiments. To obtain keratinocytes with genetic ablation of Erbb2, loxP sites were inserted flanking exon 2 of Erbb2 such that splicing from exon1 to downstream introns upon Cre recombinase expression creates a frameshift mutation. Mice were maintained in our animal facility and provided with Purina lab chow (Nestle Purina PetCare, St. Louis, Mo.) and water ad libitum. The dorsal skin was clipped one day before treatment using electric clippers (Wahl, Sterling, II) and shaved on the day of treatment with a Remington Microscreen shaver (Madison, N.C.). […] The Ultraviolet-B TL 40W/12 RS bulbs (Philips, Somerset, N.J.) used emitted approximately 30% UVA, 70% UVB and <1% UVC, with a total output of 470 μW/cm^2, as measured with radiometric photodetector probes (Newport, Irvine, Calif.). For tumor experiments, homozygous Tg.AC mice were treated and exposed twice with an interval of 7 d. Tumor number was counted and tumor volume measured weekly using calipers. Skin-fold thickness was measured using calipers (Mitutoyo, Aurora, Ill.) to lightly pinch the dorsal skin. […]
The influence of Erbb2 on epidermal hyperplasia was measured during the first two weeks of the tumor experiment regimen. […]

[1] = molecular target: insulin-like growth factor I receptor kinase (Homo sapiens, UniProt P08069)
Sequence of insulin-like growth factor I receptor kinase (P08069 31-1367): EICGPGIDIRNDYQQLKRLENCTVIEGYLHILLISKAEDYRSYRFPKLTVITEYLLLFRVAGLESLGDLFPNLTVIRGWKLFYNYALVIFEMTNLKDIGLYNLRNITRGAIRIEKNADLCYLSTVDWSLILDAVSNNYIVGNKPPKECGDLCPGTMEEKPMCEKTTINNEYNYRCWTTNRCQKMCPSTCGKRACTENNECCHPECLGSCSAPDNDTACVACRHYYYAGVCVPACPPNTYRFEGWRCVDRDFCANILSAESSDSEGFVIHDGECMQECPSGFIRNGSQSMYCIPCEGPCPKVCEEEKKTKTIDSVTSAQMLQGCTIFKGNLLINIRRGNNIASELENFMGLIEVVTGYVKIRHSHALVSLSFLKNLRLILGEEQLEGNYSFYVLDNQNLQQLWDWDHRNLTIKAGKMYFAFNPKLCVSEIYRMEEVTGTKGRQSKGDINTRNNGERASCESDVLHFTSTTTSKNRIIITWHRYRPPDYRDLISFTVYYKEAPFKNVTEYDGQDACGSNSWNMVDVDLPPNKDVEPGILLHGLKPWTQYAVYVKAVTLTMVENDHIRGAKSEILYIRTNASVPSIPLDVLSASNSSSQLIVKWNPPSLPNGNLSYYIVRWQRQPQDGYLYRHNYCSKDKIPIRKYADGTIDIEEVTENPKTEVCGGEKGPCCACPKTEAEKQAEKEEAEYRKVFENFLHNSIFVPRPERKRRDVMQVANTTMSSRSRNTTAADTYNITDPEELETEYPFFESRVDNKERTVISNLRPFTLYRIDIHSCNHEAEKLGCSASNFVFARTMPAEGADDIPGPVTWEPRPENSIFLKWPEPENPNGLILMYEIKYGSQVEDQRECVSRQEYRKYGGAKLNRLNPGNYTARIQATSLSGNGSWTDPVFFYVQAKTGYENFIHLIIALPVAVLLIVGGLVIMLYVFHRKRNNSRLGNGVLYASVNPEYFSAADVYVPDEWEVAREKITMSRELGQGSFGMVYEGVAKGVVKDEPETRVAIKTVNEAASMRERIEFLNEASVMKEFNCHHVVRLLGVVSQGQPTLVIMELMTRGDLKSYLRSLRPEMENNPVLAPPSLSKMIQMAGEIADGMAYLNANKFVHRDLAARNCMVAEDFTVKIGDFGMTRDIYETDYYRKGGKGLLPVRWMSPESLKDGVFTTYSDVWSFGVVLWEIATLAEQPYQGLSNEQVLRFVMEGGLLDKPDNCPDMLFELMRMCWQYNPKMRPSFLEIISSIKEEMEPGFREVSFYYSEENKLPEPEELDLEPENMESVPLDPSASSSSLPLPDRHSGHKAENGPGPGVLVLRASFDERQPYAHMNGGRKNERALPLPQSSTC

## COc1cc(/C=C(\C#N)C(N)=O)cc(CSc2nc3ccccc3s2)c1O [AG825]
Akt
  Akt activity, measured by its phosphorylation on immunoblot: reduced
Tg.AC mice; first week after UV irradiation
  effect on epidermal hyperplasia: minimal
Tg.AC mice; following the second UV irradiation
  epidermal hyperplasia: significantly suppressed
[1]
  fold higher IC50 for insulin-like growth factor I receptor kinase than for Erbb2: more than 100 fold
